Tests used:
[1] = system: human fibrosarcoma cell line HT1080; assay: Labeled sugar incorporation, fluorescence microscopy image analysis (positive rate); format: cell-based; conditions: 10 mM, 5 min, 23° C.
Source text: (§1) In accordance with the conventional method, cultured human fibrosarcoma cell line HT1080 (DS Pharma Biomedical Co., Ltd.) was harvested with trypsin (Invitrogen). The human gastric cancer cell line SNU-1 (ATCC), which is a suspension cell line, was directly harvested without any trypsin treatment. The cell suspension of the harvested cancer cells was centrifuged, and the supernatant was removed. The cells were resuspended with Dulbecco's PBS (−) (Nissui Pharmaceutical Co., Ltd.) and centrifuged, and the supernatant was removed again.
(§2) When performing the hemolyzing treatment, the blood cell fraction collected as described above was hemolyzed using ammonium chloride (STEMCELL Technologies) according to the manufacture's manuals.
(§3) The number of the cells was counted for each cell line using a hemacytometer in accordance with the conventional method, and then 10^5 to 10^6 cells per sample (cell suspension) was aliquoted. Each of the sample was centrifuged to remove the supernatant. Subsequently, 2-NBDG (Wako Pure Chemical Industries, Ltd.; at the final concentration given in Table 3 or 4) dissolved in Dulbecco's PBS (−) was added thereto, and the cells were suspended well. After the reaction, Dulbecco's PBS (−) was added to the mixture, and the resultant was centrifuged to remove the supernatant. The cells were resuspended with Dulbecco's PBS (−) and centrifuged, and the supernatant was removed again. The steps of resuspending cells with Dulbecco's PBS (−), centrifuging and removing the supernatant were then repeated 2 to 3 times, thereby washing the cells thoroughly. The cells were resuspended with Dulbecco's PBS (−), the concentration thereof was adjusted, and then added dropwise to a 384-well plate. The plate was centrifuged to spin down the cells. The image was captured with a fluorescence microscope (Nikon Corp.) using B-2A filter combination (Nikon Corp.). The B-2A set covers the following wavelengths. EX (excitation wavelength): 475±15 nm, DM: 505 nm or longer, BA (fluorescence wavelength) 520 nm or longer.
(§4) The acquired images were analyzed using an image analysis software NIS-ELEMENTS (trade name, Nikon Corp.) to evaluate the fluorescence intensity of the cell. […]
In a manner similar to Example 2, each of human breast adenocarcinoma cells (cell line name: MCF-7; DS Pharma Biomedical Co., Ltd.), human colon adenocarcinoma cells (cell line name: SW620; DS Pharma Biomedical Co., Ltd.), human prostate cancer cells (cell line name: PC3; DS Pharma Biomedical Co., Ltd.), human alveolar epithelial cancer cells (cell line name: NCI-H358; DS Pharma Biomedical Co., Ltd.), human gastric cancer cells (cell line name: SNU-1; ATCC) and human fibrosarcoma cells (cell line name: HT1080; DS Pharma Biomedical Co., Ltd.) was detected with the labeled sugar (2-NBDG).

Blood cells [2] = assay: Labeled sugar incorporation, fluorescence microscopy image analysis (false-positive/negative rate); format: cell-based, human; conditions: 10 mM, 5 min, 23° C.
Source text: (§5) Blood was collected from a human subject using a vacuum blood collection tube (with EDTA•2K). Blood cells were separated using HetaSep (STEMCELL Technologies) in accordance with manufacturer's instructions.
as §2, §3, §4

Blood cells [3] = assay: Labeled amino acid incorporation, fluorescence microscopy image analysis (false-positive/negative rate); format: cell-based, human; conditions: hemolyzed, 30 min, 37° C.; for Negative rate (Blood cells) / Positive rate (Blood cells): 1 mM
Source text: as §5
When performing the hemolyzing treatment, the blood cell fraction collected as described above was hemolyzed using ammonium chloride (STEMCELL Technologies) at room temperature according to the manufacture's manuals.
The number of the cells was counted for each cell line using a hemacytometer in accordance with the conventional method, and then 10^5 to 10^6 cells per sample (cell suspension) was aliquoted. The sample was centrifuged to remove the supernatant. Subsequently, H-Ala(2-Bacd)-OH (Watanabe Chemical Industries, Ltd.) was added thereto (at the final concentration given in Table 5 or 6), and the cells were suspended well. After the reaction, Dulbecco's PBS (−) was added to the mixture, and the resultant was centrifuged to remove the supernatant. The cells were resuspended with Dulbecco's PBS and centrifuged, and the supernatant was removed again. The steps of resuspending cells with Dulbecco's PBS (−), centrifuging and removing the supernatant were then repeated 2 to 3 times, thereby washing the cells thoroughly. The cells were resuspended with Dulbecco's PBS (−), the concentration thereof was adjusted, and then added dropwise to a 384-well plate. The plate was centrifuged to spin down the cells. The image was captured with a fluorescence microscope (Nikon Corp.) using B-2A filter set (Nikon Corp.). The B-2A set covers the same wavelengths as those in Example 2. The acquired images were analyzed using an image analysis software NIS-ELEMENTS (trade name, Nikon Corp.) to evaluate the fluorescence intensity of the cell.
With regard to the labeling substance, H-Lys(DMACA)-OH (Watanabe Chemical Industries, Ltd.) or H-Glu(EDANS)—OH (Watanabe Chemical Industries, Ltd.) was used instead of using H-Ala(2-Bacd)-OH in the staining of Example 3.
(§6) Further, the fluorescence intensity of the cells was evaluated in a manner similar to Example 2, except the fluorescence filter covering the wavelengths of EX (excitation wavelength) of 365/±10, DM of 400 or longer and BA (fluorescence wavelength) of 470±20 was used based on the fluorescent property of the fluorescent substances.

[4] = system: human gastric cancer cell line SNU-1; assay: Labeled amino acid incorporation, fluorescence microscopy image analysis (positive rate); format: cell-based; conditions: 1 mM; hemolyzed, 30 min, 37° C.
Source text: as §1, with “prostate cancer” for “fibrosarcoma”, “PC3” for “HT1080”
The number of the cells was counted for each cell line using a hemacytometer in accordance with the conventional method, and then 10^5 to 10^6 cells per sample (cell suspension) was aliquoted. The sample was centrifuged to remove the supernatant. […] The image was captured with a fluorescence microscope (Nikon Corp.) using B-2A filter set (Nikon Corp.). […] The acquired images were analyzed using an image analysis software NIS-ELEMENTS (trade name, Nikon Corp.) to evaluate the fluorescence intensity of the cell. […]
as §6

SMILES | Positive rate (Fibrosarcoma cell line) ([1]; hemolyzed) [%] | Positive rate (Fibrosarcoma cell line) ([1]; not hemolyzed) [%] | Negative rate (Blood cells (fresh blood)) (Blood cells [2]; hemolyzed) [%] | Positive rate (Blood cells (fresh blood)) (Blood cells [2]; hemolyzed) [%] | Negative rate (Blood cells (fresh blood)) (Blood cells [2]; not hemolyzed) [%] | Positive rate (Blood cells (fresh blood)) (Blood cells [2]; not hemolyzed) [%] | Negative rate (Blood cells) (Blood cells [3]) [%] | Positive rate (Blood cells) (Blood cells [3]) [%] | selectivity for a cancer cell in view of a negative rate (Blood cells [3]; gastric cancer cell line versus blood cells, Table 15) | Positive rate (Gastric cancer cell line) [4] [%]
O=[N+]([O-])c1ccc(NCC2OC(O)C(O)C(O)[C@@H]2O)c2nonc12 (stereo partly drawn) [6-NBDG, 6-[N-(7-nitrobenz-2-oxa-1,3-diazol-4-yl)amino]-6-deoxy-D-glucose] | 78.7 | 71.1 | 99.1 | 0.9 | 99.1 | 0.9 | – | – | – | –
N[C@@H](CCC(=O)NCCNc1cccc2c(S(=O)(=O)O)cccc12)C(=O)O [H-Glu(EDANS)-OH] | – | – | – | – | – | – | 99.4 | 0.6 | high selectivity | 56.9
CN(C)c1ccc2c(CC(=O)NCCCC[C@H](N)C(=O)O)cc(=O)oc2c1 [H-Lys(DMACA)-OH] | – | – | – | – | – | – | 82.3 | 17.7 | – | 86.1

— patent US9645154B2, “Method for detecting cancer cell” (ARKRAY, Inc., priority 2010, dated 2017)
